For one assay, the target named is T1, B1R of the rat (Rattus norvegicus, UniProt P97583).
T1 construct: expressed in transfected cells; host or cells: CHO K1 cells (Chinese hamster ovary), stably transfected
T1 sequence (P97583 1-337): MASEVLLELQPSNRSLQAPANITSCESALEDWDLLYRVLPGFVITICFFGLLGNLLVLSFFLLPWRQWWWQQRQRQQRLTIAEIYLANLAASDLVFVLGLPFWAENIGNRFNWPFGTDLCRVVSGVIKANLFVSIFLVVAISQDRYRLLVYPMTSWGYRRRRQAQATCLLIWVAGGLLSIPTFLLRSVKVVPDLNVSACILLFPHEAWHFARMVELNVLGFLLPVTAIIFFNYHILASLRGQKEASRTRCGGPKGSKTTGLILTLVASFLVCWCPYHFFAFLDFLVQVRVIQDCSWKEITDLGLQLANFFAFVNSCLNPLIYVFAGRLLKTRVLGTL
Kind of assay: FLIPR Ca2+ functional assay, B1R antagonism, rat B1R in CHO K1 cells. The format is cell-based. As to conditions: test substance 10 μM; rB1R CHO K1 cells; agonist Des-Arg9 bradykinin at EC80; % of maximum achievable inhibition. An outline of the steps: (§1)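 IC50 values come from varied compound concentrations applied 10-20 min before an EC80 agonist challenge, with Des-Arg9 bradykinin for rat and Lys-Des-Arg9 bradykinin for human receptor. Ca2+ influx in Fluo-4-loaded CHO K1 transfectants was measured by FLIPR peak fluorescence. Data are % inhibition vs maximum, n=2-3, N>=2.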

The target of a further assay is T2, human B1R (Homo sapiens, UniProt P46663).
T2 construct: expressed in transfected cells; host or cells: CHO K1 cells (Chinese hamster ovary), stably transfected
T2 sequence (P46663 1-353): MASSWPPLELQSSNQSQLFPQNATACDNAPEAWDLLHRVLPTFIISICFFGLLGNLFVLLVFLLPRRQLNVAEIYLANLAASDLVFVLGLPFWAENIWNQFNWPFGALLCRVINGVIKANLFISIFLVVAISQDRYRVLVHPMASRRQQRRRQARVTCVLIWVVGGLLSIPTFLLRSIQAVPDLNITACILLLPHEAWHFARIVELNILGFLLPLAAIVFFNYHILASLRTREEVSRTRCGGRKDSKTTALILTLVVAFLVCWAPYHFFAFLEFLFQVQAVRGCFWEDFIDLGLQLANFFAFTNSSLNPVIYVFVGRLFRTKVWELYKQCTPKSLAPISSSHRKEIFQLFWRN
Kind of assay: FLIPR Ca2+ functional assay, B1R antagonism, human B1R in CHO K1 cells. Format: cell-based. To be noted: test substance 10 μM; hB1R CHO K1 cells; agonist Lys-Des-Arg9 bradykinin at EC80; % of maximum achievable inhibition. An outline of the steps: as §1

By inhibition is commonly meant the relative decrease from the control value, in per cent. For the compound `Cc1ccc(S(=O)(=O)N2CCn3cccc3C2CC(=O)NC2CCc3cc(CN4CCOCC4)ccc3C2)cc1Cl` (centres unmarked) [Example 66, 2-[2-[(3-Chloro-4-methyl-phenyl)sulfonyl]-1,2,3,4-tetrahydro-pyrrolo[1,2-a]pyrazin-1-yl]-N-[6-(morpholin-4-yl-methyl)-1,2,3,4-tetrahydro-naphthalen-2-yl]-acetamide], the inhibition at 10 µM on B1R of the rat was found to be 100%; on human B1R, 99.9%.
The like results for `O=C(CC1c2cccn2CCN1S(=O)(=O)c1cccc(C(F)(F)F)c1)NC1CCc2cc(CN3CCOCC3)ccc2C1` (centres unmarked) [Example 67, N-[6-(Morpholin-4-yl-methyl)-1,2,3,4-tetrahydro-naphthalen-2-yl]-2-[2-[[3-(trifluoromethyl)phenyl]sulfonyl]-1,2,3,4-tetrahydro-pyrrolo[1,2-a]pyrazin-1-yl]-acetamide] were, in that order, 101% and 99.7%.
The like results for `CN1CCN(Cc2ccc3c(c2)CCC(NC(=O)CC2c4cccn4CCN2S(=O)(=O)c2cccc(C(F)(F)F)c2)C3)CC1` (centres unmarked) [Example 68, N-[6-[(4-Methyl-piperazin-1-yl)-methyl]-1,2,3,4-tetrahydro-naphthalen-2-yl]-2-[2-[[3-(trifluoromethyl)phenyl]sulfonyl]-1,2,3,4-tetrahydro-pyrrolo[1,2-a]pyrazin-1-yl]-acetamide] were, in that order, 98.9% and 99.7%.
On the same counts, the results for `O=C(CC1c2cccn2CCN1S(=O)(=O)c1cccc(C(F)(F)F)c1)NC1CCc2cc(CN3CCCc4ccccc43)ccc2C1` (centres unmarked) [Example 69, N-[6-(1,2,3,4-Tetrahydro-quinolin-1-yl-methyl)-1,2,3,4-tetrahydro-naphthalen-2-yl]-2-[2-[[3-(trifluoromethyl)phenyl]sulfonyl]-1,2,3,4-tetrahydro-pyrrolo[1,2-a]pyrazin-1-yl]-acetamide] are 90.7% and 62.8%.
For `Cc1ccc(S(=O)(=O)N2CCn3cccc3C2CC(=O)NC2CCCc3cc(CNC(C)(C)C)ccc32)cc1Cl` (centres unmarked) [Example 70, N-[6-[(tert-Butylamino)-methyl]-1,2,3,4-tetrahydro-naphthalen-1-yl]-2-[2-[(3-chloro-4-methyl-phenyl)sulfonyl]-1,2,3,4-tetrahydro-pyrrolo[1,2-a]pyrazin-1-yl]-acetamide], the results for the inhibition at 10 µM at B1R of the rat and on human B1R were 102% and 99.9%, respectively.
On the same counts, the results for `Cc1ccc(S(=O)(=O)N2CCn3cccc3C2CC(=O)NC2CCc3cc(CN4C5CCCC4CC5)ccc3C2)cc1Cl` (centres unmarked) [Example 71, N-[6-(8-Azabicyclo[3.2.1]octan-8-yl-methyl)-1,2,3,4-tetrahydro-naphthalen-2-yl]-2-[2-[(3-chloro-4-methyl-phenyl)sulfonyl]-1,2,3,4-tetrahydro-pyrrolo[1,2-a]pyrazin-1-yl]-acetamide] are 102% and 99.8%.
On the same counts, the results for `Cc1ccc(S(=O)(=O)N2CCn3cccc3C2CC(=O)NC2CCCc3cc(CNC(C)(C)C)ccc32)cc1` (centres unmarked) [Example 72, N-[6-[(tert-Butylamino)-methyl]-1,2,3,4-tetrahydro-naphthalen-1-yl]-2-[2-(p-tolylsulfonyl)-1,2,3,4-tetrahydro-pyrrolo[1,2-a]pyrazin-1-yl]-acetamide] are 101% and 99.9%.
Regarding `Cc1ccc(S(=O)(=O)N2CCn3cccc3C2CC(=O)NC2CCc3cc(CN(C)C(C)(C)C)ccc3C2)cc1` (centres unmarked) [Example 73, N-[6-[(tert-Butyl-methyl-amino)-methyl]-1,2,3,4-tetrahydro-naphthalen-2-yl]-2-[2-(p-tolylsulfonyl)-1,2,3,4-tetrahydro-pyrrolo[1,2-a]pyrazin-1-yl]-acetamide], the inhibition at 10 µM turned out to be 103% at B1R of the rat and 99.8% on human B1R.
The like results for `Cc1ccc(S(=O)(=O)N2CCn3cccc3C2CC(=O)NC2CCCc3cc(CN(C)C(C)(C)C)ccc32)cc1` (centres unmarked) [Example 74, N-[6-[(tert-Butyl-methyl-amino)-methyl]-1,2,3,4-tetrahydro-naphthalen-1-yl]-2-[2-(p-tolylsulfonyl)-1,2,3,4-tetrahydro-pyrrolo[1,2-a]pyrazin-1-yl]-acetamide] were, in that order, 91.2% and 99.7%.
For `Cc1ccc(S(=O)(=O)N2CCn3cccc3C2CC(=O)NC2CCc3cc(CN(C)C(C)(C)C)ccc3C2)cc1Cl` (centres unmarked) [Example 75, N-[6-[(tert-Butyl-methyl-amino)-methyl]-1,2,3,4-tetrahydro-naphthalen-2-yl]-2-[2-[(3-chloro-4-methyl-phenyl)sulfonyl]-1,2,3,4-tetrahydro-pyrrolo[1,2-a]pyrazin-1-yl]-acetamide], the inhibition at 10 µM amounted to 102% at B1R of the rat and 99.9% at human B1R.
The like results for `Cc1ccc(S(=O)(=O)N2CCn3cccc3C2CC(=O)NC2CCCc3cc(CN(C)C(C)(C)C)ccc32)cc1Cl` (centres unmarked) [Example 76, N-[6-[(tert-Butyl-methyl-amino)-methyl]-1,2,3,4-tetrahydro-naphthalen-1-yl]-2-[2-[(3-chloro-4-methyl-phenyl)sulfonyl]-1,2,3,4-tetrahydro-pyrrolo[1,2-a]pyrazin-1-yl]-acetamide] were, in that order, 101% and 99.8%.
The like results for `Cc1ccc(S(=O)(=O)N2CCn3cccc3C2CC(=O)NC2CCc3cc(CN4C5CCCC4CC5)ccc3C2)cc1` (centres unmarked) [Example 77, N-[6-(8-Azabicyclo[3.2.1]octan-8-yl-methyl)-1,2,3,4-tetrahydro-naphthalen-2-yl]-2-[2-(p-tolylsulfonyl)-1,2,3,4-tetrahydro-pyrrolo[1,2-a]pyrazin-1-yl]-acetamide] were, in that order, 103% and 99.2%.
For `Cc1ccc(S(=O)(=O)N2CCn3cccc3C2CC(=O)NC2CCCc3cc(CN4CCN(C)CC4)ccc32)cc1` (centres unmarked) [Example 78, N-[6-[(4-Methyl-piperazin-1-yl)-methyl]-1,2,3,4-tetrahydro-naphthalen-1-yl]-2-[2-(p-tolylsulfonyl)-1,2,3,4-tetrahydro-pyrrolo[1,2-a]pyrazin-1-yl]-acetamide], the inhibition at 10 µM at B1R of the rat stood at 86.2%; at human B1R it was 99.8%.
On the same counts, the results for `Cc1ccc(S(=O)(=O)N2CCn3cccc3C2CC(=O)NC2CCc3cc(CN4CCCc5ccccc54)ccc3C2)cc1` (centres unmarked) [Example 79, 2-[2-(p-Tolylsulfonyl)-1,2,3,4-tetrahydro-pyrrolo[1,2-a]pyrazin-1-yl]-N-[6-(1,2,3,4-tetrahydro-quinolin-1-yl-methyl)-1,2,3,4-tetrahydro-naphthalen-2-yl]-acetamide] are 99.3% and 57.9%.
On the same counts, the results for `Cc1ccc(S(=O)(=O)N2CCn3cccc3C2CC(=O)NC2CCCc3cc(CN4CCCCC4)ccc32)cc1` (centres unmarked) [Example 80, N-[6-(Piperidin-1-yl-methyl)-1,2,3,4-tetrahydro-naphthalen-1-yl]-2-[2-(p-tolylsulfonyl)-1,2,3,4-tetrahydro-pyrrolo[1,2-a]pyrazin-1-yl]-acetamide] are 101% and 99.8%.
As for `Cc1ccc(S(=O)(=O)N2CCn3cccc3C2CC(=O)NC2CCc3cc(CN4CCN(C)CC4)ccc3C2)cc1` (centres unmarked) [Example 81, N-[6-[(4-Methyl-piperazin-1-yl)-methyl]-1,2,3,4-tetrahydro-naphthalen-2-yl]-2-[2-(p-tolylsulfonyl)-1,2,3,4-tetrahydro-pyrrolo[1,2-a]pyrazin-1-yl]-acetamide], the figures for the inhibition at 10 µM at B1R of the rat and on human B1R were 102% and 99.1%, respectively.

Values taken from patent publication US8158628B2, “Sulfonylated 1,2,3,4-tetrahydropyrrolo[1,2-a]pyrazine compounds and their use as pharmaceuticals” (Gruenenthal GmbH, priority 2009, dated 2012).
